Source: article PMC4867306 (European journal of medicinal chemistry, 2016)
Entries after “also recorded” stand apart in the source; their conditions may differ. Like-named read-outs stand apart in the source and are kept apart here.

Tests used:
[1] = molecular target: T1, LAP (M17 leucine aminopeptidase) (Sus scrofa, UniProt P28839); conditions: originally measured activity; NI = no inhibition up to 0.8 mM inhibitor concentration; cited from earlier work
T1 sequence (P28839 33-519 limits assumed): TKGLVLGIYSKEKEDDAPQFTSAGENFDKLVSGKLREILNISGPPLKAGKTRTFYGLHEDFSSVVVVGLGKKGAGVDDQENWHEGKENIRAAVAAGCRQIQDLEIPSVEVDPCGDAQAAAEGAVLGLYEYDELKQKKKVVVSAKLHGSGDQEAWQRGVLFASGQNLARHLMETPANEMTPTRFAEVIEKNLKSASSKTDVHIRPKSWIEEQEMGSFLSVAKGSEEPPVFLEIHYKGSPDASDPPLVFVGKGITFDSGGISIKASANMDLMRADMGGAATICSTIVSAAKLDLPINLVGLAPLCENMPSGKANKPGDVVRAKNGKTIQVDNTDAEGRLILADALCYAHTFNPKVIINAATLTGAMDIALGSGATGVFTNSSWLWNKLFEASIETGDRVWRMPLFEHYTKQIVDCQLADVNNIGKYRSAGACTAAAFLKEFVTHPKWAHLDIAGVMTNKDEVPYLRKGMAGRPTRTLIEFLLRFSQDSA

[2] = molecular target: T1, LAP (M17 leucine aminopeptidase); assay: Inhibition of porcine kidney leucine aminopeptidase; format: biochemical
[3] = molecular target: T2, NmAPN (M1 alanine aminopeptidase from Neisseria meningitidis) (Neisseria meningitidis, UniProt Q9JYV4)
T2 sequence (Q9JYV4 1-867): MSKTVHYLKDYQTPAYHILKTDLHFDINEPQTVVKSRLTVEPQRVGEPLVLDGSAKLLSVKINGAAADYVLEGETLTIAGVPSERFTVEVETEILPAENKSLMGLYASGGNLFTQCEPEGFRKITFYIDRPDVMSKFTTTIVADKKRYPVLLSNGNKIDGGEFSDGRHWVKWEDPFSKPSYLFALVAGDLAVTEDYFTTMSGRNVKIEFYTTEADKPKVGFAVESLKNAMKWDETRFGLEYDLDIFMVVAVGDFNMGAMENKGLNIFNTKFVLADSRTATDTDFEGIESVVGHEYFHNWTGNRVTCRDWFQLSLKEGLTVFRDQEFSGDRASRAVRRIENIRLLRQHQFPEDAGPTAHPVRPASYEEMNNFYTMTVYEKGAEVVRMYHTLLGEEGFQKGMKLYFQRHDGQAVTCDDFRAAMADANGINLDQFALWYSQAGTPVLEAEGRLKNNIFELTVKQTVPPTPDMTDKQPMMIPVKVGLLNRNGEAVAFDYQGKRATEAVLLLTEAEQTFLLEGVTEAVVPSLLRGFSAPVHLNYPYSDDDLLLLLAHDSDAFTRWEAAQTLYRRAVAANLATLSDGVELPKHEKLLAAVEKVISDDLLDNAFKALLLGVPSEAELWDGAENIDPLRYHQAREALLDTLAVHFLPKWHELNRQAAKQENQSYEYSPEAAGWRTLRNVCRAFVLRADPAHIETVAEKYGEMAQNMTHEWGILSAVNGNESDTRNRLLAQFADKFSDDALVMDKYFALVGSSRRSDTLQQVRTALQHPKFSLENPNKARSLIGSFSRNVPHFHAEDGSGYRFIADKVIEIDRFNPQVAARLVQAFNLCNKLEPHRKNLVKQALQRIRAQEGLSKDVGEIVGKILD

[4] = molecular target: T2, NmAPN (M1 alanine aminopeptidase from Neisseria meningitidis); conditions: read-out: Ki NmAPN; cited from earlier work

In the case of CCCNCC(N)P(=O)(O)O (centres unmarked) [1c], the “Ki LAP” value [1] is listed as “inactive; also recorded: do not inhibit LAP at all”.
For CC(C)CNCC(N)P(=O)(O)O (centres unmarked) [1d], the “Ki LAP” value [1] is listed as “inactive; also recorded: do not inhibit LAP at all”.
For NC(CNC1CCCCC1)P(=O)(O)O (centres unmarked) [1h, N-cyclohexyl-1,2-diaminoethylphosphonic acid], the “Ki LAP” value [1] is given as “does not influence the LAP activity at all; also recorded: inactive; also recorded: do not inhibit LAP at all”.
NC(CNCC1CCCO1)P(=O)(O)O (centres unmarked) [1k] showed a Ki [2] of 2500 to 7000 nM.
With Nc1ccc(CNCC(N)P(=O)(O)O)cc1 (centres unmarked) [1r] the “improvement of affinity compared with non-modified analogue 1n” value [3] was 3-to-4 fold.
For COc1ccc(CNCC(N)P(=O)(O)O)cc1 (centres unmarked) [1s], the “improvement of affinity compared with non-modified analogue 1n” value [3] was 3-to-4 fold.
In the case of NC(CN1CCOCC1)P(=O)(O)O (centres unmarked) [1w], the Ki ([2]; read-out: Ki LAP, NI = no inhibition up to 0.8 mM inhibitor concentration) is reported as > 800000 nM.
In the case of NC(CCc1ccccc1)P(=O)(O)CC(Cc1ccccc1)C(=O)O (centres unmarked) [phosphinic analogue of hPhePhe], the Ki [4] is given as 302 nM.
